The values that follow come from paper PMC12751012, “Nanoscale Direct-to-Biology Optimization and Structural Insights into Selective S. aureus TrmD Inhibitors” (Journal of Medicinal Chemistry, 2025).

The first assay has as its target T1, S. aureus TrmD (Staphylococcus aureus, UniProt Q2FZ43).
T1 construct: made in house; host or cells: E. coli BL21
T1 sequence (Q2FZ43 1-245): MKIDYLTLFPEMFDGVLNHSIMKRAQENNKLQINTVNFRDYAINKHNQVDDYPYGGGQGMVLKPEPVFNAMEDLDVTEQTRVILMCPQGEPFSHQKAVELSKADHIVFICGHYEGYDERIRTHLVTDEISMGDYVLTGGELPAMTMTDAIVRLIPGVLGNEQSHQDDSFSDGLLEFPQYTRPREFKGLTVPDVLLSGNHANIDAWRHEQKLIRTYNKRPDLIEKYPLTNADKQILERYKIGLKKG
Description: nanoSAR direct-to-biology FP displacement screening of crude triazoles. Type of assay: binding. The following applies: crude triazole at 1 μM, assuming full conversion; 500 nM TrmD, 10 nM tracer 4. Put shortly: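 S. aureus TrmD (500 nM) with tracer 4 (10 nM) in Tris/NaCl/MgCl2/glycerol buffer, pH 7.5, was challenged with unpurified triazoles from in situ CuAAC of alkyne 7 with a 320-member azide library.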
As for `C[C@H](N)Cn1cc(-c2c[nH]c3nc[nH]c(=O)c23)nn1` [Compound 02F09, O=C1NC=NC2=C1C(C3=CN(C[C@@H](N)C)N=N3)=CN2], the “% displaced tracer” value was 26%.

The same assay, now with this note: crude triazole at 1 μM, assuming full conversion; 500 nM TrmD, 10 nM tracer 4; read-out: % displaced tracer.
With `NCCOCCn1cc(-c2c[nH]c3nc[nH]c(=O)c23)nn1` [Compound 02F12, O=C1NC=NC=2NC=C(C=3N=NN(C3)CCOCC[NH3+])C12], the inhibition at 1 µM was found to be 39%.

Turning to `O=c1[nH]cnc2[nH]cc(-c3cn(C4CCOCC4)nn3)c12` [Compound 02B04, O=C1NC=NC=2NC=C(C=3N=NN(C3)C4CCOCC4)C12], the inhibition at 1 µM was 10%.

As for `C[C@@H](CN)n1cc(-c2c[nH]c3nc[nH]c(=O)c23)nn1` [Compound 03C02, O=C1NC=NC=2NC=C(C=3N=NN(C3)[C@H](C[NH3+])C)C12], the inhibition at 1 µM turned out to be 40%.

As for `O=C1c2ccccc2C(=O)N1CCn1cc(-c2c[nH]c3nc[nH]c(=O)c23)nn1` [Compound 01H05, O=C1N(C(=O)c2c1cccc2)CCN3N=NC(C=4C=5C(=O)NC=NC5NC4)=C3], the inhibition at 1 µM was found to be 13%.

For the compound `O=c1[nH]cnc2[nH]cc(-c3cn(-c4ccc5c(c4)CCC5)nn3)c12` [Compound 01F08, O=C1NC=NC=2NC=C(C=3N=NN(c4cc5c(cc4)CCC5)C3)C12], the inhibition at 1 µM was 5%.

As to `Cc1cc(F)cc(-n2cc(-c3c[nH]c4nc[nH]c(=O)c34)nn2)c1` [Compound 03C04, Fc1cc(N2N=NC(C=3C=4C(=O)NC=NC4NC3)=C2)cc(c1)C], the inhibition at 1 µM turned out to be 17%.

Regarding `CN(C)CCn1cc(-c2c[nH]c3nc[nH]c(=O)c23)nn1` [Compound 03A02, O=C1NC=NC=2NC=C(C=3N=NN(C3)CC[NH+](C)C)C12], the inhibition at 1 µM amounted to 44%.

With `O=c1[nH]cnc2[nH]cc(-c3cn(Cc4nccs4)nn3)c12` [Compound 04G04, S1C(=NC=C1)CN2N=NC(C=3C=4C(=O)NC=NC4NC3)=C2], the inhibition at 1 µM is 68%.

With `O=c1[nH]cnc2[nH]cc(-c3cn(CC4CNC4)nn3)c12` [Compound 01B06, O=C1NC=NC=2NC=C(C=3N=NN(C3)CC4C[NH2+]C4)C12], the inhibition at 1 µM turned out to be 62%.

As to `O=c1[nH]cnc2[nH]cc(-c3cn(CCO[C@H]4CCOC4)nn3)c12` [Compound 02B12, O=C1NC=NC=2NC=C(C=3N=NN(C3)CCO[C@@H]4COCC4)C12], the inhibition at 1 µM was found to be 56%.

As to `O=C1NCCCC[C@H]1n1cc(-c2c[nH]c3nc[nH]c(=O)c23)nn1` [Compound 03A05, O=C1NC=NC=2NC=C(C=3N=NN(C3)[C@H]4C(=O)NCCCC4)C12], the inhibition at 1 µM amounted to 40%.

On to `Cc1ccc([C@@H](O)[C@H](C)n2cc(-c3c[nH]c4nc[nH]c(=O)c34)nn2)cc1` [Compound 01D10, O=C1NC=NC=2NC=C(C=3N=NN(C3)[C@H]([C@H](O)c4ccc(cc4)C)C)C12], for which the inhibition at 1 µM was 49%.

On to `O=c1[nH]cnc2[nH]cc(-c3cn(C[C@H]4CCNC4)nn3)c12` [Compound 03C12, O=C1NC=NC=2NC=C(C=3N=NN(C3)C[C@@H]4C[NH2+]CC4)C12], for which the inhibition at 1 µM is 74%.

For `O=c1[nH]cnc2[nH]cc(-c3cn(-c4ccc(-c5ccccc5)cc4)nn3)c12` [Compound 02B05, O=C1NC=NC=2NC=C(C=3N=NN(c4ccc(c5ccccc5)cc4)C3)C12], the inhibition at 1 µM came out at 3%.

Regarding `O=c1[nH]cnc2[nH]cc(-c3cn(C[C@@H]4CCCN4)nn3)c12` [Compound 03C09, O=C1NC=NC=2NC=C(C=3N=NN(C3)C[C@H]4[NH2+]CCC4)C12], the inhibition at 1 µM is 58%.

On to `O=c1[nH]cnc2[nH]cc(-c3cn(CC4CCCC4)nn3)c12` [Compound 03E11, O=C1NC=NC=2NC=C(C=3N=NN(C3)CC4CCCC4)C12], for which the inhibition at 1 µM worked out at 39%.

In the case of `O=c1[nH]cnc2[nH]cc(-c3cn([C@H]4CCc5cccnc54)nn3)c12` [Compound 03G04, O=C1NC=NC=2NC=C(C=3N=NN(C3)[C@@H]4c5ncccc5CC4)C12], the inhibition at 1 µM worked out at 49%.

Regarding `O=c1[nH]cnc2[nH]cc(-c3cn(-c4ccc(OC(F)(F)F)c(Cl)c4)nn3)c12` [Compound 01B11, Clc1c(OC(F)(F)F)ccc(N2N=NC(C=3C=4C(=O)NC=NC4NC3)=C2)c1], the inhibition at 1 µM turned out to be 16%.

With `O=c1[nH]cnc2[nH]cc(-c3cn(CCCN4CCCOCC4)nn3)c12` [Compound 02A10, O=C1NC=NC=2NC=C(C=3N=NN(C3)CCC[N@@H+]4CCOCCC4)C12], the inhibition at 1 µM stood at 23%.

Regarding `COC(=O)c1cncc(-n2cc(-c3c[nH]c4nc[nH]c(=O)c34)nn2)c1` [Compound 02F05, O=C(OC)c1cncc(N2N=NC(C=3C=4C(=O)NC=NC4NC3)=C2)c1], the inhibition at 1 µM amounted to 11%.

Take `O=c1[nH]cnc2[nH]cc(-c3cn(CCCN4CCSCC4)nn3)c12` [Compound 02H07, S1CC[NH+](CC1)CCCN2N=NC(C=3C=4C(=O)NC=NC4NC3)=C2]: the inhibition at 1 µM worked out at 59%.

As to `O=c1[nH]cnc2[nH]cc(-c3cn([C@@H]4CC[C@H]4F)nn3)c12` [Compound 04C04, F[C@H]1[C@H](N2N=NC(C=3C=4C(=O)NC=NC4NC3)=C2)CC1], the inhibition at 1 µM amounted to 21%.

For `COC(=O)c1ccc(-n2cc(-c3c[nH]c4nc[nH]c(=O)c34)nn2)cc1` [Compound 03D08, O=C(OC)c1ccc(N2N=NC(C=3C=4C(=O)NC=NC4NC3)=C2)cc1], the inhibition at 1 µM came out at 11%.

As to `N#Cc1cnn(CCn2cc(-c3c[nH]c4nc[nH]c(=O)c34)nn2)c1` [Compound 02G10, O=C1NC=NC=2NC=C(C=3N=NN(C3)CCN4N=CC(C#N)=C4)C12], the inhibition at 1 µM was found to be 38%.

For `O=c1[nH]cnc2[nH]cc(-c3cn(CC4CCNCC4)nn3)c12` [Compound 02C09, O=C1NC=NC=2NC=C(C=3N=NN(C3)CC4CC[NH2+]CC4)C12], the inhibition at 1 µM came to 79%.

Consider `O=c1[nH]cnc2[nH]cc(-c3cn([C@H]4COC[C@@H]4n4cccn4)nn3)c12` [Compound 04D04, O=C1NC=NC=2NC=C(C=3N=NN(C3)[C@@H]4[C@@H](N5N=CC=C5)COC4)C12], for which the inhibition at 1 µM came out at 51%.

Take `O=c1[nH]cnc2[nH]cc(-c3cn(C4CCNCC4)nn3)c12` [Compound 02H04, O=C1NC=NC=2NC=C(C=3N=NN(C3)C4CC[NH2+]CC4)C12]: the inhibition at 1 µM was found to be 28%.

Regarding `CC(C)Cn1cc(-c2c[nH]c3nc[nH]c(=O)c23)nn1` [Compound 02F06, O=C1NC=NC=2NC=C(C=3N=NN(C3)CC(C)C)C12], the inhibition at 1 µM was found to be 1.22%.

For `COC(=O)c1cnoc1Cn1cc(-c2c[nH]c3nc[nH]c(=O)c23)nn1` [Compound 01D12, O=C(OC)C1=C(ON=C1)CN2N=NC(C=3C=4C(=O)NC=NC4NC3)=C2], the inhibition at 1 µM was found to be 38%.

On to `Cc1cncc(CCn2cc(-c3c[nH]c4nc[nH]c(=O)c34)nn2)n1` [Compound 04C01, O=C1NC=NC=2NC=C(C=3N=NN(C3)CCc4nc(cnc4)C)C12], for which the inhibition at 1 µM came out at 69%.

Take `CN(C)[C@@H]1CCN(CCn2cc(-c3c[nH]c4nc[nH]c(=O)c34)nn2)C1` [Compound 03E03, O=C1NC=NC=2NC=C(C=3N=NN(C3)CC[N@@H+]4C[C@H]([NH+](C)C)CC4)C12]: the inhibition at 1 µM is 40%.

Regarding `CC[C@H](c1ccccn1)n1cc(-c2c[nH]c3nc[nH]c(=O)c23)nn1` [Compound 04A02, O=C1NC=NC=2NC=C(C=3N=NN(C3)[C@@H](c4ncccc4)CC)C12], the inhibition at 1 µM was 15%.

In the case of `COc1ccc(C(F)(F)F)cc1-n1cc(-c2c[nH]c3nc[nH]c(=O)c23)nn1` [Compound 02A04, FC(F)(F)c1cc(N2N=NC(C=3C=4C(=O)NC=NC4NC3)=C2)c(OC)cc1], the inhibition at 1 µM was 20%.

As for `C[C@@H](O)Cn1cc(-c2c[nH]c3nc[nH]c(=O)c23)nn1` [Compound 04A01, O=C1NC=NC=2NC=C(C=3N=NN(C3)C[C@H](O)C)C12], the inhibition at 1 µM came out at 15%.

As to `O=C(Cn1cc(-c2c[nH]c3nc[nH]c(=O)c23)nn1)Nc1ccccc1` [Compound 01A10, O=C1NC=NC=2NC=C(C=3N=NN(C3)CC(=O)Nc4ccccc4)C12], the inhibition at 1 µM amounted to 41%.

Take `O=c1[nH]cnc2[nH]cc(-c3cn(CC4CCC=CCC4)nn3)c12` [Compound 02G01, O=C1NC=NC=2NC=C(C=3N=NN(C3)CC4CCC=CCC4)C12]: the inhibition at 1 µM turned out to be 71%.

`O=C(Cn1cc(-c2c[nH]c3nc[nH]c(=O)c23)nn1)N1CCCCC1` [Compound 02F02, O=C1NC=NC=2NC=C(C=3N=NN(C3)CC(=O)N4CCCCC4)C12]: the inhibition at 1 µM was 32%.

As to `O=c1[nH]cnc2[nH]cc(-c3cn(Cc4cnn(-c5ccccc5)c4)nn3)c12` [Compound 01A02, O=C1NC=NC=2NC=C(C=3N=NN(C3)CC=4C=NN(c5ccccc5)C4)C12], the inhibition at 1 µM came to 81%.

Regarding `NC(=O)c1csc(Cn2cc(-c3c[nH]c4nc[nH]c(=O)c34)nn2)n1` [Compound 02F07, S1C(=NC(C(=O)N)=C1)CN2N=NC(C=3C=4C(=O)NC=NC4NC3)=C2], the inhibition at 1 µM was found to be 91%.

In the case of `O=c1[nH]cnc2[nH]cc(-c3cn([C@H]4C=CCCCC4)nn3)c12` [Compound 04B01, O=C1NC=NC=2NC=C(C=3N=NN(C3)[C@H]4C=CCCCC4)C12], the inhibition at 1 µM is 32%.

Take `N#Cc1ccc(-n2cc(-c3c[nH]c4nc[nH]c(=O)c34)nn2)cc1` [Compound 02D05, O=C1NC=NC=2NC=C(C=3N=NN(c4ccc(C#N)cc4)C3)C12]: the inhibition at 1 µM came to 1.83%.

`O=c1[nH]cnc2[nH]cc(-c3cn(C[C@@H]4CC(F)(F)CO4)nn3)c12` [Compound 01A11, F[C@]1(F)CO[C@H](CN2N=NC(C=3C=4C(=O)NC=NC4NC3)=C2)C1]: the inhibition at 1 µM worked out at 44%.

Take `CC(C)(C)n1cc(-c2c[nH]c3nc[nH]c(=O)c23)nn1` [Compound 03H11, O=C1NC=NC=2NC=C(C=3N=NN(C3)C(C)(C)C)C12]: the inhibition at 1 µM came to 11%.
